Experimental data reported in patent publication US11491120B2, “Pharmacological prophylactics against stress-induced affective disorders in females” (The Trustees of Columbia University in the City of New York, priority 2017, dated 2022).
“Also recorded” adds a separate entry of the source.

Columns and labels:
[1] = tested on: mice; details: sub-anesthetic doses; cited from earlier work
[2] = tested on: humans; details: sub-anesthetic doses, cited from earlier work
[3] = tested on: female 129S6/SvEv mice; test: Forced swim test (FST), immobility time, after stress; details: for p, Sal vs. drug, Fisher's PLSD: Immobility Time (min 1-6), Forced Swim Test Day 2 / p, Sal vs. drug, Fisher's PLSD: Immobility Time Average (min 3-6), Forced Swim Test Day 2: 3 day prophylactic drug
[4] = 2.5 mg/kg, 1 week prophylactic drug
[5] = 10 mg/kg, 1 week prophylactic drug
[6] = 10 mg/kg, 1 week prophylactic drug, learned helplessness stress
[7] = 30 mg/kg, 1 week prophylactic drug
[8] = Forced Swim Test Day 1, Dunnett test Sal vs. drug (2.5), 1 week prophylactic drug
[9] = Forced Swim Test Day 1, Dunnett test Sal vs. drug (10), 1 week prophylactic drug
[10] = Forced Swim Test Day 1, Dunnett test Sal vs. drug (30), 1 week prophylactic drug

CNC1(c2ccccc2Cl)CCCCC1=O (racemic) [(R,S)-ketamine, (RS)-2-(2-chlorophenyl)-2-(methylamino)cyclohexanone]
Antidepressant onset [1]: 30 min
Antidepressant onset ([2]; humans): 2 h
Duration of antidepressant effect [2]: up to 2 weeks
p, Sal vs. drug, Dunnett test: Immobility Time (min 1), Forced Swim Test Day 2 [3, 4]: 0.5849
p, Sal vs. drug, Dunnett test: Immobility Time (min 1-6), Forced Swim Test Day 2 [3, 4]: 0.8314
p, Sal vs. drug, Dunnett test: Immobility Time (min 2), Forced Swim Test Day 2 [3, 4]: 0.9770
p, Sal vs. drug, Dunnett test: Immobility Time (min 4), Forced Swim Test Day 2 [3, 4]: 0.9997
p, Sal vs. drug, Dunnett test: Immobility Time (min 5), Forced Swim Test Day 2 [3, 4]: 0.9999
p, Sal vs. drug, Dunnett test: Immobility Time (min 6), Forced Swim Test Day 2 [3, 4]: 0.9686
p, Sal vs. drug, Dunnett test: Immobility Time Average (min 3-6), Forced Swim Test Day 2 [3, 4]: 0.9990
p, Sal vs. drug, Fisher's PLSD: Immobility Time (min 1-6), Forced Swim Test Day 2 ([3]; 2.5 mg/kg): 0.1441
p, Sal vs. drug, Fisher's PLSD: Immobility Time Average (min 3-6), Forced Swim Test Day 2 ([3]; 2.5 mg/kg): 0.3992
* (significance), Sal vs. drug, Dunnett test: Immobility Time (min 1-6), Forced Swim Test Day 2 [3, 5]: ** (** p<0.01)
* (significance), Sal vs. drug, Dunnett test: Immobility Time (min 4), Forced Swim Test Day 2 [3, 5]: * (* p<0.05)
* (significance), Sal vs. drug, Dunnett test: Immobility Time (min 5), Forced Swim Test Day 2 [3, 5]: * (* p<0.05)
* (significance), Sal vs. drug, Dunnett test: Immobility Time Average (min 3-6), Forced Swim Test Day 2 [3, 5]: ** (** p<0.01)
p, Sal vs. drug, Dunnett test: Immobility Time (min 1), Forced Swim Test Day 2 [3, 5]: 0.0825
p, Sal vs. drug, Dunnett test: Immobility Time (min 1-6), Forced Swim Test Day 2 [3, 5]: 0.0006
p, Sal vs. drug, Dunnett test: Immobility Time (min 2), Forced Swim Test Day 2 [3, 5]: 0.0675
p, Sal vs. drug, Dunnett test: Immobility Time (min 4), Forced Swim Test Day 2 [3, 5]: 0.0144
p, Sal vs. drug, Dunnett test: Immobility Time (min 5), Forced Swim Test Day 2 [3, 5]: 0.0149
p, Sal vs. drug, Dunnett test: Immobility Time (min 6), Forced Swim Test Day 2 [3, 5]: 0.3306
p, Sal vs. drug, Dunnett test: Immobility Time Average (min 3-6), Forced Swim Test Day 2 [3, 5]: 0.0062
* (significance), Sal vs. drug, Fisher's PLSD: Immobility Time Average (min 3-6), Forced Swim Test Day 2 [3, 6]: *** (*** p<0.0001)
P, Sal vs. drug, Fisher's PLSD: Immobility Time Average (min 3-6), Forced Swim Test Day 2 [3, 6]: <0.0001
p, Sal vs. drug, Fisher's PLSD: Immobility Time (min 1-6), Forced Swim Test Day 2 ([3]; 10 mg/kg): 0.1807
p, Sal vs. drug, Fisher's PLSD: Immobility Time Average (min 3-6), Forced Swim Test Day 2 ([3]; 10 mg/kg): 0.4394
Immobility on FST Day 2, first minute, vs saline ([3]; 10 mg/kg, injection one hour prior to FST Day 1, female mice): significantly less immobile compared to saline mice; also recorded: significantly less immobile than saline mice during the first minute
p, Sal vs. drug, Dunnett test: Immobility Time (min 1), Forced Swim Test Day 2 [3, 7]: 0.9167
p, Sal vs. drug, Dunnett test: Immobility Time (min 1-6), Forced Swim Test Day 2 [3, 7]: 0.1741
p, Sal vs. drug, Dunnett test: Immobility Time (min 2), Forced Swim Test Day 2 [3, 7]: 0.7390
p, Sal vs. drug, Dunnett test: Immobility Time (min 4), Forced Swim Test Day 2 [3, 7]: 0.4082
p, Sal vs. drug, Dunnett test: Immobility Time (min 5), Forced Swim Test Day 2 [3, 7]: 0.3770
p, Sal vs. drug, Dunnett test: Immobility Time (min 6), Forced Swim Test Day 2 [3, 7]: 0.8643
p, Sal vs. drug, Dunnett test: Immobility Time Average (min 3-6), Forced Swim Test Day 2 [3, 7]: 0.5537
p, Sal vs. drug, Fisher's PLSD: Immobility Time (min 1-6), Forced Swim Test Day 2 ([3]; 30 mg/kg): 0.0750
p, Sal vs. drug, Fisher's PLSD: Immobility Time Average (min 3-6), Forced Swim Test Day 2 ([3]; 30 mg/kg): 0.3050
p, Immobility Time (min 1) [3, 8]: 0.9806
p, Immobility Time (min 1-6) [3, 8]: 0.1415
p, Immobility Time (min 3) [3, 8]: 0.9989
p, Immobility Time (min 4) [3, 8]: 0.9991
p, Immobility Time (min 5) [3, 8]: 0.9999
p, Immobility Time (min 6) [3, 8]: 0.9999
p, Immobility Time Average (min 3-6) [3, 8]: 0.9994
* (significance), Immobility Time (min 3) [3, 9]: * (* p<0.05)
p, Immobility Time (min 1) [3, 9]: 0.9957
p, Immobility Time (min 1-6) [3, 9]: 0.2256
p, Immobility Time (min 3) [3, 9]: 0.0470
p, Immobility Time (min 4) [3, 9]: 0.3636
p, Immobility Time (min 5) [3, 9]: 0.2596
p, Immobility Time (min 6) [3, 9]: 0.1488
p, Immobility Time Average (min 3-6) [3, 9]: 0.0733
p, Immobility Time (min 1) [3, 10]: 0.9955
p, Immobility Time (min 1-6) [3, 10]: 0.3435
p, Immobility Time (min 3) [3, 10]: 0.1617
p, Immobility Time (min 4) [3, 10]: 0.9555
p, Immobility Time (min 5) [3, 10]: 0.8239
p, Immobility Time (min 6) [3, 10]: 0.8254
p, Immobility Time Average (min 3-6) [3, 10]: 0.5081
p, Immobility Time (min 1-6), OVX Sal vs OVX drug ([3]; Ovariectomized cohort, 1 week prophylactic drug, Forced Swim Test Day 1, OVX mice, K (10), (2R,6R)-HNK (0.025)): 0.0920
